This is an account of results in patent US10683333B2, “Islet amyloid polypeptides with improved solubility” (The Research Foundation for The State University of New York, priority 2014, dated 2020).

Entries after “also recorded” stand apart in the source; their conditions may differ. Where a SMILES comes first, the peptide text is derived from it. Bridges are numbered along the chain shown (N, C = ends).

Data set [1] in a line: Thioflavin-T fluorescence assay of amyloid formation kinetics. The class given is physicochemical. Particulars: 20 mM Tris-HCl pH 7.4, 25° C., without stirring. As for the experimental part:
Each peptide was dissolved into 100% hexafluoroisoproponal (HFIP) to make a 1.6 mM stock solution. Stock solutions were filtered using […] Acrodisc syringe filter with a GHP membrane and the required amount of peptide was lyophilized overnight to remove HFIP. Dry peptide was dissolved into the appropriate buffer for the fluorescence assays. Thioflavin-T binding assays, conducted without HFIP or stirring at 25° C., were utilized to monitor amyloid formation kinetics. Fluorescence measurements were performed using a Beckman Coulter DTX 880 plate reader with a multimode detector using an excitation wavelength of 430 nm and an emission wavelength of 485 nm. Samples were prepared by dissolving dry peptide into Tris-HCl buffer and thioflavin-T solution immediately before the measurement. The final concentrations were 16 μM hIAPP or 160 μM of each analog and 32 μM thioflavin-T in 20 mM Tris-HCl (pH 7.4). After creating mutant hIAPP polypeptides of the present disclosure, applicants tested the propensity of the different analogs to form amyloid at pH 7.4 using thioflavin-T fluorescence assays. […] Amyloid formation follows a sigmoidal time course consisting of a lag phase in which few, if any, fibrils are formed, followed by a growth phase and a saturation phase in which amyloid fibrils are in equilibrium with soluble peptide.

Data set [2] is described as follows: Transmission electron microscopy (TEM) of samples at end of kinetic experiments. The data set is classed as physicochemical. Particulars: aliquots at end of kinetic experiment; 16 μM hIAPP, 160 μM analogs, pH 7.4. The protocol: TEM images were collected at the Life Science Microscopy Center at the State University of New York at Stony Brook. 15 μL aliquots of the samples used for fluorescence assays were removed at the end of each kinetic experiment, blotted on a carbon-coated 200-mesh copper grid for 1 min and then negatively stained with saturated uranyl acetate for 1 min. Samples were further analyzed using TEM and CD.

The format of data set [3] is physicochemical. Particulars: pH 7.4. As for the experimental part: Dry peptides were dissolved into PBS buffer at pH 7.4 at different initial concentrations, and were incubated for 7 days at 25° C. without stirring. Each sample was then centrifuged using a Beckman Coulter Microfuge 22R Centrifuge at 24° C. for 20 min. The relative centrifugal force used was 1.75×10^4 g. Solubility of each sample was approximated by measuring the absorbance of the corresponding supernatant at 280 nm measured using a Beckman Coulter DU 730 UV/Vis Spectrophotometer. All of the peptides contain a single Tyr, 3 Phe and a disulfide bond, thus their extinction coefficients at 280 nm are very similar. The solubility of PM and the mutant hIAPP polypeptides of the present disclosure was analyzed and compared at pH 7.4. Each peptide was incubated in buffer for 7 days at three different concentrations (100 μM, 500 μM and 1 mM) and the solution was then centrifuged. The apparent solubility was represented by the absorbance of the supernatant of each sample measured at 280 nm. […] Additionally, the supernatant of QM sample has a higher absorbance, 0.162, than that of TM-a and PM, 0.103 and 0.112 respectively (FIG. 4A). […] At 1 mM, the absorbance of the soluble fraction of TM-a, TM-b and QM were 1.23, 1.49, and 1.33 respectively, while that value of PM was only 0.354. In comparison, the absorbance of the supernatant of the 1 mM hIAPP was 0.109 (FIGS. 4A-C).

Data set [4] can be described thus: Far-UV circular dichroism (CD) of aliquots at end of kinetic experiments. The data set is classed as physicochemical. Particulars: aliquots at end of kinetic experiment, 25° C. The protocol:
Far-UV CD experiments were performed on an Applied Photophysics Chirascan CD spectrophotometer at 25° C. Aliquots from the kinetic experiments were removed at the end of each experiment and the spectra were recorded as the average of three repeats over a range of 190-260 nm, at 1 nm intervals. A 0.1 cm quartz cuvette was used and a background spectrum was subtracted from the data. Samples were further analyzed using TEM and CD.
In general terms: Circular dichroism is widely used to follow secondary structure.

For the compound `CC[C@H](C)[C@H](NC(=O)[C@@H]1CCCN1C(=O)CNC(=O)[C@H](Cc1ccccc1)NC(=O)[C@H](CC(N)=O)NC(=O)[C@H](CC(N)=O)NC(=O)[C@H](CO)NC(=O)[C@H](CO)NC(=O)[C@H](Cc1c[nH]cn1)NC(=O)[C@@H](NC(=O)[C@H](CC(C)C)NC(=O)[C@H](Cc1ccccc1)NC(=O)[C@H](CC(N)=O)NC(=O)[C@H](C)NC(=O)[C@H](CC(C)C)NC(=O)[C@H](CCCNC(=N)N)NC(=O)[C@H](CCC(N)=O)NC(=O)[C@@H](NC(=O)[C@H](C)NC(=O)[C@@H]1CSSC[C@H](NC(=O)[C@@H](N)CCCCN)C(=O)N[C@@H](CC(N)=O)C(=O)N[C@@H]([C@@H](C)O)C(=O)N[C@@H](C)C(=O)N[C@@H]([C@@H](C)O)C(=O)N1)[C@@H](C)O)C(C)C)C(=O)N[C@@H](CC(C)C)C(=O)N1CCC[C@H]1C(=O)N1CCC[C@H]1C(=O)N[C@H](C(=O)N[C@@H](CC(N)=O)C(=O)N[C@H](C(=O)NCC(=O)N[C@@H](CO)C(=O)N[C@@H](CC(N)=O)C(=O)N[C@H](C(=O)N[C@@H](Cc1ccc(O)cc1)C(N)=O)[C@@H](C)O)C(C)C)[C@@H](C)O` [PM], the “amyloid formation monitored by thioflavin-T fluorescence” value in data set [1] (160 μM peptide, about 140 hrs) was “flat fluorescence curves; also recorded: do not form amyloid”. The “fibril morphology in TEM images” value in data set [2] is “no fibrils were found”.

Take `CC(C)C[C@H](NC(=O)[C@H](CCCNC(=N)N)NC(=O)[C@H](CCC(N)=O)NC(=O)[C@@H](NC(=O)[C@H](C)NC(=O)[C@@H]1CSSC[C@H](NC(=O)[C@@H](N)CCCCN)C(=O)N[C@@H](CC(N)=O)C(=O)N[C@@H]([C@@H](C)O)C(=O)N[C@@H](C)C(=O)N[C@@H]([C@@H](C)O)C(=O)N1)[C@@H](C)O)C(=O)N[C@@H](C)C(=O)N[C@@H](CC(N)=O)C(=O)N[C@@H](Cc1ccccc1)C(=O)N[C@@H](CC(C)C)C(=O)N[C@H](C(=O)N[C@@H](CCCNC(=N)N)C(=O)N[C@@H](CO)C(=O)N[C@@H](CO)C(=O)N[C@@H](CC(N)=O)C(=O)N[C@@H](CC(N)=O)C(=O)N[C@@H](Cc1ccccc1)C(=O)NCC(=O)N[C@@H](C)C(=O)N1CCC[C@H]1C(=O)N[C@@H](CC(C)C)C(=O)N[C@@H](CO)C(=O)N[C@@H](CO)C(=O)N[C@H](C(=O)N[C@@H](CC(N)=O)C(=O)N[C@H](C(=O)NCC(=O)N[C@@H](CO)C(=O)N[C@@H](CC(N)=O)C(=O)N[C@H](C(=O)N[C@@H](Cc1ccc(O)cc1)C(N)=O)[C@@H](C)O)C(C)C)[C@@H](C)O)C(C)C` [DM] (H-KCNTATCATQRLANFLVRSSNNFGAPLSSTNVGSNTY-NH2; disulfide 2-7; N-terminus assumed): the “solubility at neutral pH compared with PM / wild-type hIAPP” value in data set [3] is on record as “much better solubility at neutral pH than PM”.

Turning to `CC[C@H](C)[C@H](NC(=O)[C@H](C)NC(=O)CNC(=O)[C@H](Cc1ccccc1)NC(=O)[C@H](CC(N)=O)NC(=O)[C@H](CC(N)=O)NC(=O)[C@H](CO)NC(=O)[C@H](CO)NC(=O)[C@H](Cc1c[nH]cn1)NC(=O)[C@@H](NC(=O)[C@H](CC(C)C)NC(=O)[C@H](Cc1ccccc1)NC(=O)[C@H](CC(N)=O)NC(=O)[C@H](C)NC(=O)[C@H](CC(C)C)NC(=O)[C@H](CCCNC(=N)N)NC(=O)[C@H](CCC(N)=O)NC(=O)[C@@H](NC(=O)[C@H](C)NC(=O)[C@@H]1CSSC[C@H](NC(=O)[C@@H](N)CCCCN)C(=O)N[C@@H](CC(N)=O)C(=O)N[C@@H]([C@@H](C)O)C(=O)N[C@@H](C)C(=O)N[C@@H]([C@@H](C)O)C(=O)N1)[C@@H](C)O)C(C)C)C(=O)N[C@@H](CC(C)C)C(=O)N[C@@H](CO)C(=O)N[C@@H](CO)C(=O)N[C@H](C(=O)N[C@@H](CC(N)=O)C(=O)N[C@H](C(=O)NCC(=O)N[C@@H](CO)C(=O)N[C@@H](CC(N)=O)C(=O)N[C@H](C(=O)N[C@@H](Cc1ccc(O)cc1)C(N)=O)[C@@H](C)O)C(C)C)[C@@H](C)O` [hIAPP], the “time for amyloid formation to reach the saturation phase” value in data set [1] (16 μM hIAPP) is ≤ 40 h. The “fibril morphology in TEM images” value in data set [2] is on record as “typical amyloid fibril morphology”. Moreover, in data set [4], the “secondary structure by CD spectrum” value is “β-sheet structure”. Moreover, the “absorbance of the supernatant at 280 nm (apparent solubility)” value in data set [3] was found to be 0.109.
